Laboratory results published in article PMC8445441, “Elucidating the mechanism by which synthetic helper peptides sensitize Pseudomonas aeruginosa to multiple antibiotics” (PLoS Pathogens, 2021).

Key:
PAO1 in human blood = assay: Antimicrobial activity in blood (ex vivo bacteremia model); type: cell-based, Pseudomonas aeruginosa; conditions: for duration of control of the infection in blood: human blood infected with PAO1, in the presence of 4 μM D-11; for antibacterial effect in blood (in words): human blood, 5×10^7 CFU/mL PAO1, antibiotic combined with D-11 (4 μM), 4 hours
Procedure: Human blood of healthy individuals was obtained from Sanquin (certified Dutch organization responsible for meeting the need in healthcare for blood and blood products, https://www.sanquin.nl/) and was infected with 5×10^7 CFU/mL of PAO1. The blood was distributed at 0.5 mL in 2 mL Eppendorf tubes and treated with the antibiotics and peptides at the indicated concentrations at 37 °C for 4 hours. The samples were decimal serially diluted in PBS. Drops of 10 μL of each dilution on LB agar to track the development of infection. The experiment was performed in triplicate.

P. aeruginosa PAO1 = assay: Cutaneous mouse abscess infection model; type: in vivo; conditions: BALB/c mice, PAO1 2×10^7 CFU; single dose; azithromycin 7.5, chloramphenicol 8, doxycycline 2 mg/kg, each with D-11 10 mg/kg; 20 h post infection
Procedure: The mouse cutaneous abscess infection model was performed as previously described with minor modifications. 8-week-old specific-pathogen-free female BALB/c mice were used in the experiment. Before infection, 80 μL of 7.5% chloral hydrate were injected intraperitoneally to anaesthetize the mice. PAO1 was grown to an OD600 of 1.0. The bacteria were collected by centrifugation and washed twice with saline. Then the bacteria were resuspended in saline at a concentration of 4 × 10^8 CFU/ml. 50 μL of the bacterial suspension were injected into the right side of the dorsum of the mouse, resulting in 2 × 10^7 CFU per mouse. 30 minutes after the infection, 50 μL saline alone or containing indicated concentration of antibiotic or 10 mg/kg D-11, or a combination of antibiotic and 10 mg/kg D-11 was injected into the infected area. 20 hours post infection, the skin abscess was excised and subjected to homogenization in saline. The live bacteria numbers were determined by plating.

`CC[C@H]1OC(=O)[C@H](C)[C@@H](O[C@H]2C[C@@](C)(OC)[C@@H](O)[C@H](C)O2)[C@H](C)[C@@H](O[C@@H]2O[C@H](C)C[C@H](N(C)C)[C@H]2O)[C@](C)(O)C[C@@H](C)CN(C)[C@H](C)[C@@H](O)[C@]1(C)O` [Azithromycin] was tested, and the “duration of control of the infection in blood” value (from here on “duration”) (PAO1 in human blood) was “more than 24 hours” and the “reductions of CFU in the abscess compared to each individual antibiotic” value (“reductions of CFU in the abscess” for short) (P. aeruginosa PAO1) was 2–3 log10.
In the case of `O=C(N[C@H](CO)[C@H](O)c1ccc([N+](=O)[O-])cc1)C(Cl)Cl` [Chloramphenicol], the “duration” value (PAO1 in human blood) is reported as “more than 24 hours”, the “antibacterial effect in blood (in words)” value (PAO1 in human blood) is reported as “best antibacterial effects” and the “reductions of CFU in the abscess” value (P. aeruginosa PAO1) is reported as 2–3 log10.
In the case of `CC[C@H]1OC(=O)[C@H](C)[C@@H](O[C@H]2C[C@@](C)(OC)[C@@H](O)[C@H](C)O2)[C@H](C)[C@@H](O[C@@H]2O[C@H](C)C[C@H](N(C)C)[C@H]2O)[C@](C)(OC)C[C@@H](C)C(=O)[C@H](C)[C@@H](O)[C@]1(C)O` [Clarithromycin], the “duration” value (PAO1 in human blood) is reported as “more than 24 hours”.
`CO[C@H]1[C@H](OC(=O)c2ccc(C)[nH]2)[C@H](O)[C@@H](Oc2ccc3c(O)c(NC(=O)c4c[nH]c(C(=O)Nc5c(O)c6ccc(O[C@H]7OC(C)(C)[C@@H](OC)[C@H](OC(=O)c8ccc(C)[nH]8)[C@@H]7O)c(C)c6oc5=O)c4C)c(=O)oc3c2C)OC1(C)C` [Coumermycin A1] was tested, and the “antibacterial effect in blood (in words)” value (PAO1 in human blood) was “relative week antibacterial effects”.
In the case of `C[C@H]1c2cccc(O)c2C(=O)C2=C(O)[C@]3(O)C(=O)C(C(N)=O)=C(O)[C@@H](N(C)C)[C@@H]3[C@@H](O)[C@@H]21` [Doxycycline], the “duration” value (PAO1 in human blood) is reported as “more than 24 hours”, the “antibacterial effect in blood (in words)” value (PAO1 in human blood) is reported as “best antibacterial effects” and the “reductions of CFU in the abscess” value (P. aeruginosa PAO1) is reported as 2–3 log10.
In the case of `CO[C@@H]1[C@@H](OC(N)=O)[C@@H](O)[C@H](Oc2ccc3c(O)c(NC(=O)c4ccc(O)c(CC=C(C)C)c4)c(=O)oc3c2C)OC1(C)C` [Novobiocin], the “antibacterial effect in blood (in words)” value (PAO1 in human blood) is reported as “relative week antibacterial effects”.
With `CO[C@H]1/C=C/O[C@@]2(C)Oc3c(C)c(O)c4c(O)c(c(/C=N/N5CCN(C)CC5)c(O)c4c3C2=O)NC(=O)/C(C)=C\C=C\[C@H](C)[C@H](O)[C@@H](C)[C@@H](O)[C@@H](C)[C@H](OC(C)=O)[C@@H]1C` [Rifampicin] the “antibacterial effect in blood (in words)” value (PAO1 in human blood) was “best antibacterial effects”.
